Data reported in patent US11253525B2, “Inhibitors of indoleamine 2,3-dioxygenase and methods of their use” (BRISTOL-MYERS SQUIBB COMPANY, priority 2018, dated 2022).
Read-outs that look alike come from different tables or passages of the source.

Target: T1, indoleamine 2,3-dioxygenase (IDO) (Homo sapiens, UniProt P14902)
T1 construct: replaced with media containing IFNγ (#285-IF/CF, R&D Systems) at a final concentration of 25 ng/mL; endogenous in cells; host or cells: HeLa (ATCC CCL-2), IFN-gamma stimulated
T1 sequence (P14902 whole entry): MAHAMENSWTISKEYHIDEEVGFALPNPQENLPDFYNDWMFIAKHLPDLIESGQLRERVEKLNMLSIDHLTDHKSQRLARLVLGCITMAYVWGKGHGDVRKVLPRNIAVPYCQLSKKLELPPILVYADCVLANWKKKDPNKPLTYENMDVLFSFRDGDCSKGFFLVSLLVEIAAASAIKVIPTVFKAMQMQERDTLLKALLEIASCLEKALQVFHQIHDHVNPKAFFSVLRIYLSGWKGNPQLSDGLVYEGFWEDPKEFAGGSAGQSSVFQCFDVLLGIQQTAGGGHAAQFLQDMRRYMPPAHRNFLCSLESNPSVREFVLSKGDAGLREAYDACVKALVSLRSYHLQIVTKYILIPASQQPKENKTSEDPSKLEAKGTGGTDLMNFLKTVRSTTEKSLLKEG
Experiment: HeLa cell-based indoleamine 2,3-dioxygenase (IDO) assay, kynurenine production
Details: HeLa cells, IFNγ 25 ng/mL, 48 hour incubation
Experimental: Assessment of Inhibitor Activity in HeLa Cell-Based Indoleamine 23-Dioxygenase (IDO) Assay
Cells were maintained in a humidified incubator at 37° C. in 5% CO2.
IDO activity was assessed as a function of kynurenine production as follows: HeLa cells were seeded in a 96-well culture plate at a density of 5,000 cells/well and allowed to equilibrate overnight. […] A serial dilution of each test compound was added to the cells in a total volume of 200 μL of culture medium. After a further 48 hour incubation, 170 μL of supernatant was transferred from each well to a fresh 96-well plate. 12.1 μL of 6.1N trichloroacetic acid (#T0699, Sigma-Aldrich) was added to each well and mixed, followed by incubation at 65° C. for 20 minutes to hydrolyze N-formylkynurenine, the product of indoleamine 2,3-dioxygenase, to kynurenine. The reaction mixture was then centrifuged for 10 mins at 500×g to sediment the precipitate. 100 μL of the supernatant was transferred from each well to a fresh 96-well plate. […] Kynurenine concentrations were determined by measuring absorbance at 480 nm and calibrating against an L-kynurenine (#K8625, Sigma-Aldrich) standard curve using a SPECTRAMAX® M2e microplate reader (Molecular Devices). The percentage activity at each inhibitor concentration was determined and IC50 values assessed using nonlinear regression.

[1] = read-out: IDO Hela IC50 class (A < 50, B < 250, C < 2000)

IC50 (read-out: IDO Hela IC50) [nM] | IC50 [1] [nM] | Compound
150 | – | CC[C@H](CC(=O)O)c1ccc([C@@H](OC)C(F)(F)F)c(Nc2cnc(C)nc2)c1 (relative stereo) [Example 90, (R)-3-(3-((2-methylpyrimidin-5-yl)amino)-4-((R)-2,2,2-trifluoro-1-methoxyethyl)phenyl)pentanoic acid]
10 | – | CCOc1ncc(Nc2cc([C@H](CC)CC(=O)O)ccc2[C@H](OC)C(F)(F)F)cn1 (relative stereo) [Example 95, (R)-3-(3-((2-ethoxypyrimidin-5-yl)amino)-4-((S)-2,2,2-trifluoro-1-methoxyethyl)phenyl)pentanoic acid]
890 | – | CCc1ncc(Nc2cc([C@@H](COC)CC(=O)O)ccc2[C@H](CC)N2CCOCC2)cn1 (relative stereo) [Example 102, (S)-3-(3-((2-ethylpyrimidin-5-yl)amino)-4-((S)-1-morpholinopropyl)phenyl)-4-methoxybutanoic acid]
– | < 50 | CC[C@@H](c1ccc([C@@H](COC)CC(=O)O)cc1Nc1ccc(Cl)cc1)N1CCOCC1 (relative stereo) [Example 105, (S)-3-(3-((4-chlorophenyl)amino)-4-((S)-1-morpholinopropyl)phenyl)-4-methoxybutanoic acid]
– | 250 to 2000 | CCc1ncc(Nc2cc([C@@H](COC)CC(=O)O)ccc2[C@@H](CC)N2CCOCC2)cn1 (relative stereo) [Example 107, (S)-3-(3-((2-ethylpyrimidin-5-yl)amino)-4-((R)-1-morpholinopropyl)phenyl)-4-methoxybutanoic acid]
– | 250 to 2000 | CC[C@H](c1ccc([C@@H](COC)CC(=O)O)cc1Nc1ccc(COC)nc1)N1CCOCC1 (relative stereo) [Example 109, (S)-4-methoxy-3-(3-((6-(methoxymethyl)pyridin-3-yl)amino)-4-((R)-1-morpholinopropyl)phenyl)butanoic acid]
380 | 50 to 250 | CC[C@H](c1ccc([C@@H](COC)CC(=O)O)cc1Nc1ccc(Cl)cc1)N1CCOCC1 (relative stereo) [Example 110, (S)-3-(3-((4-chlorophenyl)amino)-4-((R)-1-morpholinopropyl)phenyl)-4-methoxybutanoic acid]
80 | – | CC[C@H](CC(=O)O)c1ccc([C@@H](CC)N2CCOCC2)c(Nc2cnc(C)nc2)c1 (relative stereo) [Example 120, (R)-3-(3-((2-methylpyrimidin-5-yl)amino)-4-((R)-1-morpholinopropyl)phenyl)pentanoic acid]
30 | – | CC[C@H](CC(=O)O)c1ccc([C@@H](CC)N2CCOCC2)c(Nc2ccc(COC)nc2)c1 (relative stereo) [Example 121, (R)-3-(3-((6-(methoxymethyl)pyridin-3-yl)amino)-4-((R)-1-morpholinopropyl)phenyl)pentanoic acid]
– | < 50 | CC[C@H](CC(=O)O)c1ccc([C@@H](CC)N2CCOCC2)c(Nc2ccc(C#N)cc2)c1 (relative stereo) [Example 122, (R)-3-(3-((4-cyanophenyl)amino)-4-((R)-1-morpholinopropyl)phenyl)pentanoic acid]
– | < 50 | CC[C@H](CC(=O)O)c1ccc([C@@H](CC)N2CCOCC2)c(Nc2ccc(Cl)cc2)c1 (relative stereo) [Example 123, (R)-3-(3-((4-chlorophenyl)amino)-4-((R)-1-morpholinopropyl)phenyl)pentanoic acid]
90 | – | CC[C@@H](CC(=O)O)c1ccc([C@@H](CC)N2CCOCC2)c(Nc2cnc(C(F)(F)F)nc2)c1 (relative stereo) [Example 130, (S)-3-(4-((R)-1-morpholinopropyl)-3-((2-(trifluoromethyl)pyrimidin-5-yl)amino)phenyl)pentanoic acid]
– | 250 to 2000 | CC[C@@H](CC(=O)O)c1ccc([C@@H](CC)N2CCOCC2)c(Nc2ccc(COC)nc2)c1 (relative stereo) [Example 131, (S)-3-(3-((6-(methoxymethyl)pyridin-3-yl)amino)-4-((R)-1-morpholinopropyl)phenyl)pentanoic acid]
– | 250 to 2000 | CC[C@@H](CC(=O)O)c1ccc([C@@H](CC)N2CCOCC2)c(Nc2ccc(OC(F)F)cn2)c1 (relative stereo) [Example 133, (S)-3-(3-((5-(difluoromethoxy)pyridin-2-yl)amino)-4-((R)-1-morpholinopropyl)phenyl)pentanoic acid]

Continued, compound first:

Compound | IC50 (read-out: IDO Hela IC50) [nM] | IC50 [1] [nM]
CCO[C@H](c1ccc([C@H](CC)CC(=O)O)cc1Nc1cnc(C)nc1)C(F)(F)F (relative stereo) [Example 17, (R)-3-(4-((R)-1-ethoxy-2,2,2-trifluoroethyl)-3-((2-methylpyrimidin-5-yl)amino)phenyl)pentanoic acid] | 130 | –
CCO[C@H](c1ccc([C@H](CC)CC(=O)O)cc1Nc1cnc(CC)nc1)C(F)(F)F (relative stereo) [Example 18, (R)-3-(4-((R)-1-ethoxy-2,2,2-trifluoroethyl)-3-((2-ethylpyrimidin-5-yl)amino)phenyl)pentanoic acid] | 40 | –
CCOc1ncc(Nc2cc([C@@H](CC)CC(=O)O)ccc2[C@@H](OCC)C(F)(F)F)cn1 (relative stereo) [Example 24, (S)-3-(4-((R)-1-ethoxy-2,2,2-trifluoroethyl)-3-((2-ethoxypyrimidin-5-yl)amino)phenyl)pentanoic acid] | 10 | –
CCO[C@H](c1ccc([C@@H](CC)CC(=O)O)cc1Nc1ccc(F)cc1)C(F)(F)F (relative stereo) [Example 30, (S)-3-(4-((R)-1-ethoxy-2,2,2-trifluoroethyl)-3-((4-fluorophenyl)amino)phenyl)pentanoic acid] | – | < 50
CCO[C@@H](c1ccc([C@H](CC)CC(=O)O)cc1Nc1cnc(OC)cn1)C(F)(F)F (relative stereo) [Example 36, (R)-3-(4-((S)-1-ethoxy-2,2,2-trifluoroethyl)-3-((5-methoxypyrazin-2-yl)amino)phenyl)pentanoic acid] | 30 | –
CCO[C@H](c1ccc([C@H](COC)CC(=O)O)cc1Nc1cnc(OC)nc1)C(F)(F)F (relative stereo) [Example 54, 3-(4-(1-ethoxy-2,2,2-trifluoroethyl)-3-((2-methoxypyrimidin-5-yl)amino)phenyl)-4-methoxybutanoic Acid] | 100 | –
CCO[C@H](c1ccc([C@H](COC)CC(=O)O)cc1Nc1ccc(C#N)cc1)C(F)(F)F (relative stereo) [Example 57, (R)-3-(3-((4-cyanophenyl)amino)-4-((R)-1-ethoxy-2,2,2-trifluoroethyl)phenyl)-4-methoxybutanoic acid] | 10 | –
CCO[C@H](c1ccc([C@@H](COC)CC(=O)O)cc1Nc1ncc(F)cn1)C(F)(F)F (relative stereo) [Example 64, (S)-3-(4-((R)-1-ethoxy-2,2,2-trifluoroethyl)-3-((5-fluoropyrimidin-2-yl)amino)phenyl)-4-methoxybutanoic acid] | – | 250 to 2000
CCO[C@@H](c1ccc([C@H](COC)CC(=O)O)cc1Nc1ccc(C#N)c(F)c1)C(F)(F)F (relative stereo) [Example 70, (R)-3-(3-((4-cyano-3-fluorophenyl)amino)-4-((S)-1-ethoxy-2,2,2-trifluoroethyl)phenyl)-4-methoxybutanoic acid] | 30 | –
CCO[C@@H](c1ccc([C@H](COC)CC(=O)O)cc1Nc1ccc(C#N)cc1)C(F)(F)F (relative stereo) [Example 73, (R)-3-(3-((4-cyanophenyl)amino)-4-((S)-1-ethoxy-2,2,2-trifluoroethyl)phenyl)-4-methoxybutanoic acid] | 10 | –
CC[C@H](CC(=O)O)c1ccc([C@@H](OC)C(F)(F)F)c(Nc2ccc(C#N)cc2)c1 (relative stereo) [Example 89, (R)-3-(3-((4-cyanophenyl)amino)-4-((R)-2,2,2-trifluoro-1-methoxyethyl)phenyl)pentanoic acid] | – | < 50
CCO[C@H](c1ccc([C@H](CC)CC(=O)O)cc1NC(=O)Nc1ccc(C)cc1)C(F)(F)F (single isomer, unassigned) [Example 7] | 60 | –
CCO[C@H](c1ccc([C@H](CC)CC(=O)O)cc1NC(=O)Nc1ccc(Cl)cc1F)C(F)(F)F (single isomer, unassigned) [Example 9] | 10 | –
CCO[C@H](c1ccc([C@H](CC)CC(=O)O)cc1Nc1cnc(OC)nc1)C(F)(F)F (single isomer, unassigned) [Example 10] | 20 | –
CCOc1ncc(Nc2cc([C@H](CC)CC(=O)O)ccc2[C@@H](OCC)C(F)(F)F)cn1 (single isomer, unassigned) [Example 12] | 20 | –
CCOc1cnc(Nc2cc([C@H](CC)CC(=O)O)ccc2[C@@H](OCC)C(F)(F)F)cn1 (single isomer, unassigned) [Example 13] | 10 | –
CCO[C@H](c1ccc([C@H](CC)CC(=O)O)cc1Nc1cnc(OC)cn1)C(F)(F)F (single isomer, unassigned) [Example 14] | 10 | –
CCO[C@H](c1ccc([C@H](CC)CC(=O)O)cc1Nc1ccc(C#N)cc1)C(F)(F)F (single isomer, unassigned) [Example 15] | – | < 50
